Patent US20170283862A1, “GENETIC TESTING FOR PREDICTING RESISTANCE OF KLEBSIELLA SPECIES AGAINST ANTIMICROBIAL AGENTS” (priority 2014, published 2017)

Test system: K. pneumoniae isolates
Test: Gene dosage effects: AUC of normalized median coverage per gene, resistant vs susceptible isolates
Parameters: unit not given here
Details: best MIC break
Description: Since a potential reason for drug resistance is gene duplication, gene dose dependency was evaluated. For each sample the genomic coverage for each position was determined using BED Tools. Gene ranges were extracted from the reference assemblies NC_009648.gff and NC_016612.gff and the normalized median coverage per gene was calculated. To compare low- and high-resistance isolates the best area under the curve (AUC) value was computed.
To estimate the difference in coverage we calculated AUC values for the normalized median coverage per gene in the two groups.

[1] = gene KPN_00957: 1081235-1081342
[2] = gene KPN_01607: 1784144-1785004
[3] = gene KPN_01776: 1957110-1958672
[4] = gene KPN_01784: 1966562-1967182
[5] = gene KPN_01790: 1972135-1973631
[6] = gene KPN_04541: 4973659-4974345
[7] = gene KPN_02272: 2484450-2485832
[8] = gene KPN_03336: 3652949-3653470

Ampicillin/Sulbactam
BEST_BREAK [1]: 32
BEST_BREAK [2]: 64.1
BEST_BREAK [3]: 64.1
BEST_BREAK [4]: 64.1
BEST_BREAK [5]: 64.1
BEST_BREAK [6]: 64.1
BEST_BREAK (gene rmlC: 2723257-2723811): 64.1
BEST_BREAK (gene ygbI: 1783401-1784123): 64.1
BEST_BREAK (gene ygbJ: 1782199-1783101): 64.1
BEST_BREAK (gene ygbK: 1780922-1782187): 64.1

Amoxicillin/K Clavulanate
BEST_BREAK [1]: 64
BEST_BREAK [2]: 8
BEST_BREAK [4]: 32
BEST_BREAK [7]: 64
BEST_BREAK [8]: 32
BEST_BREAK (gene KPN_04540: 4971080-4973572): 32
BEST_BREAK [6]: 32
BEST_BREAK (gene rmlC: 2715683-2716237): 64.1
BEST_BREAK (gene rmlC: 2723257-2723811): 64.1
BEST_BREAK (gene ygbI: 1783401-1784123): 8

Gentamicin
BEST_BREAK (gene KPN_00596: 673027-673989): 2
BEST_BREAK [1]: 1
BEST_BREAK [2]: 1
BEST_BREAK [3]: 1
BEST_BREAK [4]: 1

Piperacillin/Tazobactam
BEST_BREAK [1]: 8
BEST_BREAK [2]: 128
BEST_BREAK (gene KPN_01766: 1947966-1948751): 128
BEST_BREAK (gene KPN_01767: 1948966-1949805): 128
BEST_BREAK (gene KPN_01772: 1953630-1954052): 128
BEST_BREAK (gene KPN_01773: 1954090-1955208): 64
BEST_BREAK [3]: 128
BEST_BREAK [4]: 128
BEST_BREAK [5]: 128
BEST_BREAK [7]: 256.1
BEST_BREAK [8]: 256
BEST_BREAK [6]: 64
BEST_BREAK (gene rmlC: 2723257-2723811): 256.1
BEST_BREAK (gene stbA: 300128-300664): 128
BEST_BREAK (gene ygbI: 1783401-1784123): 128
BEST_BREAK (gene ygbJ: 1782199-1783101): 128
BEST_BREAK (gene ygbK: 1780922-1782187): 128

CC1(C)S[C@@H]2[C@H](NC(=O)[C@H](N)c3ccccc3)C(=O)N2[C@H]1C(=O)O [Ampicillin]
BEST_BREAK [1]: 128.1
BEST_BREAK [2]: 128.1
